Data set [1] concerns the target rat mGluR5 (Rattus norvegicus (Rat), UniProt P31424). Put plainly: Calcium mobilization assay in HEK 293A cells stably expressing rat mGluR5. The conditions noted are these: for IC50: HEK cells transfected with rat mGluR5, inhibition of glutamate EC80 response, ± standard error where average of at least three experiments; for remaining activity at 30 µM: HEK293-A, amplitude of response in the presence of 30 μM test compound as a percentage of maximal response (100 μM glutamate), read-out: % Glu Max. Type of data set: cell-based. As for the experimental part:
The cells were grown overnight at 37° C. in the presence of 5% CO2. […] Dye was removed, 20 μL of assay buffer was added, and the plate was incubated for 5 minutes at room temperature.
Ca^2+ flux was measured using the Functional Drug Screening System (FDSS7000, Hamamatsu, Japan). After establishment of a fluorescence baseline for about 3 seconds, the compounds of the present invention were added to the cells, and the response in cells was measured. 2.3 minutes later an EC20 concentration of the mGluR5 receptor agonist glutamate was added to the cells, and the response of the cells was measured for 1.9 minutes; an EC80 concentration of agonist was added and readings taken for an additional 1.7 minutes. All test compounds were dissolved and diluted to a concentration of 10 mM in 100% DMSO. Compounds were then serially diluted 1:3 in DMSO into 10 point concentration response curves, transferred to daughter plates, and further diluted into assay buffer to a 2× stock. Calcium fluorescence measures were recorded as fold over basal fluorescence; raw data was then normalized to the maximal response to glutamate.
The raw data file containing all time points was used as the data source in the analysis template. This was saved by the FDSS as a tab-delimited text file. Data were normalized using a static ratio function (F/F0) for each measurement of the total 360 values per well divided by each well's initial value. Data were then reduced to peak amplitudes (Max−Initial Min) using a time range that starts approximately 3 seconds prior to the glutamate EC20/EC80 addition and continues for approximately 90-120 seconds. This is sufficient time to capture the peak amplitude of the cellular calcium response. Individual amplitudes were expressed as % EMax by multiplying each amplitude by 100 and then dividing the product by the mean of the amplitudes derived from the glutamate ECMax-treated wells. IC50 values for test compounds were generated by fitting the normalized values versus the log of the test compound concentration (in mol/L) using a 4 parameter logistic equation where none of the parameters were fixed. Each of the three values collected at each concentration of test compound were weighted evenly.
The mGluR5 activity was determined using the calcium mobilization assays in human embryonic kidney cells as described herein below, wherein the human embryonic kidney cells were transfected with rat mGluR5. The mGluR5 activity data for some compounds are shown as the average of at least three experiments with the standard error in these cases. If no error is indicated for the mGluR5 activity, the values given represent the results from a single experiment or the average of two experiments. The compounds in Table 1 were synthesized with methods identical or analogous to those shown herein. The requisite starting materials were commercially available, described in the literature, or readily synthesized by one skilled in the art of organic synthesis.
GluMax is the amplitude of response in the presence of 30 μM test compound as a percentage of maximal response (100 μM glutamate). Partial antagonists display concentration-response curves (CRCs) that plateau above 10%.

Data set [2] concerns the target mGluR4 (Homo sapiens (Human), UniProt Q14833). The conditions noted are these: cited from earlier work.
Data set [3] has as its system N-methyl-D-aspartate (NMDA) receptor. The conditions noted are these: at higher concentrations; cited from earlier work.
In data set [4] the target is cytochrome P450 1A2 (Homo sapiens (Human), UniProt P05177). As to conditions: cited from earlier work.
The conditions of data set [5]: intravenous administration, rhesus monkeys; cited from earlier work.

Sequence of rat mGluR5 (P31424 21-1203): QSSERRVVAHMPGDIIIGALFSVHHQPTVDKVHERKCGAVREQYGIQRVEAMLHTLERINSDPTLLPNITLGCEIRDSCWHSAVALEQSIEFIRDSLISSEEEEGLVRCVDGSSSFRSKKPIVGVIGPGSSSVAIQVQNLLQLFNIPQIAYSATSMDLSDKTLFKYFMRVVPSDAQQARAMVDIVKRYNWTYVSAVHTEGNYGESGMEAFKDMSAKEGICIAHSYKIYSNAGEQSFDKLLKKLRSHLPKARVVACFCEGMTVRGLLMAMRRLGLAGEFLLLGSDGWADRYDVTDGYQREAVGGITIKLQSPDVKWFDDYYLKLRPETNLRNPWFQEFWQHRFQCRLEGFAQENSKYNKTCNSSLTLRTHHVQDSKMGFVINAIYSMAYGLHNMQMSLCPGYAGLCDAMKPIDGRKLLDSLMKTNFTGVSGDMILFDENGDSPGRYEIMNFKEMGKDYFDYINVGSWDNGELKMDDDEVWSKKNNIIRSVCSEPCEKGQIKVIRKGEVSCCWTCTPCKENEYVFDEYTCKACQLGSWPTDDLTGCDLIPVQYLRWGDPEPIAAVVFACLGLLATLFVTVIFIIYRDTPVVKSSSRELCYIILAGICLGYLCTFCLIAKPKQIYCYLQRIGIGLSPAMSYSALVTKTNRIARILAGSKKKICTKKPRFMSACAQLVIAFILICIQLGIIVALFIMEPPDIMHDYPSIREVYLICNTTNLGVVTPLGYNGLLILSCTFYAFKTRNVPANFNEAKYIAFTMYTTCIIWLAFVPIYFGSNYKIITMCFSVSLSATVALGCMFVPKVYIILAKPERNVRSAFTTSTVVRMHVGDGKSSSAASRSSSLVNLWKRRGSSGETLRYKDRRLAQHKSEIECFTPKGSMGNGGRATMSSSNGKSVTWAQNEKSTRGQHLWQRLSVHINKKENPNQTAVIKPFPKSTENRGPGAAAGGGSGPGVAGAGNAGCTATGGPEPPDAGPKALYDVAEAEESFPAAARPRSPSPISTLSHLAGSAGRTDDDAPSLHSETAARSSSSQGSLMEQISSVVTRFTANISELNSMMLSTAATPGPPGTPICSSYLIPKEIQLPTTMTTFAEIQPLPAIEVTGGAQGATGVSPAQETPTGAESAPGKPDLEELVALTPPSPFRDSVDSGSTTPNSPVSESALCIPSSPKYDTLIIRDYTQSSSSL
Sequence of mGluR4 (Q14833 33-912): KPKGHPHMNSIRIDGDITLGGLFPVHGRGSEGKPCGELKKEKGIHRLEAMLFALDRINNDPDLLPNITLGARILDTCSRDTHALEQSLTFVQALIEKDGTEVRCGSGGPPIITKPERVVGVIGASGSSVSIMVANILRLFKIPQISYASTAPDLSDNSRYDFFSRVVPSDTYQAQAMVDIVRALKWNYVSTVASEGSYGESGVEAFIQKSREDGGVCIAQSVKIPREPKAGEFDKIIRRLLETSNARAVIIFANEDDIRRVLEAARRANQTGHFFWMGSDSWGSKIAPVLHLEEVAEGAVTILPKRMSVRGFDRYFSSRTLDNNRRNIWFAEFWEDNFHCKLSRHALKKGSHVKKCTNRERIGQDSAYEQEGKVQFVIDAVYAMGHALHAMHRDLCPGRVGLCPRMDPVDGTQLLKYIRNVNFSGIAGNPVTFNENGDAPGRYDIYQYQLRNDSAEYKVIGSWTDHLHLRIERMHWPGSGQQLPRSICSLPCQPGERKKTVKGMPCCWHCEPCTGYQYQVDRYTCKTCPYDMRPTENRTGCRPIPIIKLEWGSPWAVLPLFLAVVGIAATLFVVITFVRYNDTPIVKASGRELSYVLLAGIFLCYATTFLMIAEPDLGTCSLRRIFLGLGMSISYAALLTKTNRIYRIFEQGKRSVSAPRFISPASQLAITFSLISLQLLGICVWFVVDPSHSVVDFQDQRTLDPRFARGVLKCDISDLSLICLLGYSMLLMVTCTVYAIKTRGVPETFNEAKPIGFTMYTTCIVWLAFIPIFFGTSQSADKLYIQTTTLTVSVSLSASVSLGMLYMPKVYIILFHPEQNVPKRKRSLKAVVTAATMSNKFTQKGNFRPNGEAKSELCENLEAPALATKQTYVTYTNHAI
Sequence of cytochrome P450 1A2 (P05177 whole entry, species assumed): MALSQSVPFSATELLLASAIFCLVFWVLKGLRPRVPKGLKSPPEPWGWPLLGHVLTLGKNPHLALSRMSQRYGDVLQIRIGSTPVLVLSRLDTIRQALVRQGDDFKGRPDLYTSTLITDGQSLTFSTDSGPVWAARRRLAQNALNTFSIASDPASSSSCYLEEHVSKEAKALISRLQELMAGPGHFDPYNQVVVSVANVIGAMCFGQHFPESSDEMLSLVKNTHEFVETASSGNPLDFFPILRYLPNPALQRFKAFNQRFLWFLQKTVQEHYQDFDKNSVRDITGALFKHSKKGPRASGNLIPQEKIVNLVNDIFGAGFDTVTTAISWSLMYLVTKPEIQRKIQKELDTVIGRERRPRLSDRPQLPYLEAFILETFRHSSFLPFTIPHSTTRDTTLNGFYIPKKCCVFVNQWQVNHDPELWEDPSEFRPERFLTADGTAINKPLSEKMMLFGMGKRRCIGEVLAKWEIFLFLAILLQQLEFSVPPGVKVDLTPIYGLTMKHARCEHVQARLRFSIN

What is called IC50 is the concentration that inhibits the measured activity by half. As for `Cc1cc(-c2cc(C(=O)Nc3ccc(F)cn3)c3ncnn3c2)n(C)n1`, in data set [1], the IC50 turned out to be 2130 nM.
For `Cc1cc(-c2cc(C(=O)Nc3nc(C)cs3)c3ncnn3c2)[nH]n1`, in data set [1], the IC50 came to 60 ± 8 nM.
As for `CCc1ccncc1-c1cc(C(=O)Nc2nc(C)cs2)c2ncnn2c1`, the half-inhibitory concentration (IC50) in data set [1] stood at 984 nM.
For the molecule `Cc1cc(-c2cc(C(=O)Nc3nc(C)cs3)c3ncnn3c2)ccn1`, the IC50 in data set [1] was 10000 nM.
Still for that read-out and setting: next, `Cc1csc(NC(=O)c2cc(-c3cccc4cnn(C)c34)cn3ncnc23)n1`: 10200 nM.
Turning to `Cc1csc(NC(=O)c2cc(-c3ccc4c(ccn4C)c3)cn3ncnc23)n1`, in data set [1], the remaining activity at 30 µM amounted to 27% and the IC50 was greater than 10000 nM.
For the molecule `Cc1csc(NC(=O)c2cc(-c3ccncc3)cn3ncnc23)n1`, the IC50 in data set [1] was 8070 nM.
Regarding `Cc1csc(NC(=O)c2cc(-c3ccc(F)nc3)cn3ncnc23)n1`, the IC50 in data set [1] was 4930 nM.
Turning to `Cc1csc(NC(=O)c2cc(-c3cccnc3F)cn3ncnc23)n1`, the IC50 in data set [1] was found to be 978 nM.
As for `Cc1csc(NC(=O)c2cc(-c3ccnnc3)cn3ncnc23)n1`, in data set [1], the remaining activity at 30 µM came to 27% and the IC50 was greater than 10000 nM.
As for `Cc1csc(NC(=O)c2cc(-c3ccn(C)n3)cn3ncnc23)n1`, in data set [1], the remaining activity at 30 µM is 70% and the IC50 is greater than 10000 nM.
As to `Cc1csc(NC(=O)c2cc(-c3ccc4c(cnn4C)c3)cn3ncnc23)n1`, in data set [1], the remaining activity at 30 µM was 53% and the IC50 is greater than 10000 nM.
Regarding `Cc1csc(NC(=O)c2cc(-c3ccc4cnn(C)c4c3)cn3ncnc23)n1`, in data set [1], the remaining activity at 30 µM was 30% and the 50% inhibitory concentration (IC50) was greater than 10000 nM.
In the case of `Cc1cccc(-c2cc(C(=O)Nc3nc(C)cs3)c3ncnn3c2)c1`, the IC50 in data set [1] is 4770 nM.
Consider `Cc1csc(NC(=O)c2cc(-c3cn(C)nc3C)cn3ncnc23)n1`, for which the IC50 in data set [1] stood at 2160 nM.
`CCn1nccc1-c1cc(C(=O)Nc2nc(C)cs2)c2ncnn2c1`: in data set [1], the IC50 turned out to be 3920 nM.
`COc1ccc(C)c(-c2cc(C(=O)Nc3nc(C)cs3)c3ncnn3c2)c1`: the IC50 in data set [1] stood at 7100 nM.
Consider `Cc1cccc(C#Cc2ccccc2)n1` [MPEP, 2-methyl-6-(phenylethynyl)pyridine], for which the “activity at mGluR4” value in data set [2] is “positive allosteric modulator”. In addition, the “inhibition of NMDA receptor activity” value in data set [3] was “directly inhibit”.
As for `Cc1cc(-c2cc(C(=O)Nc3ccccn3)c3nccn3c2)[nH]n1`, the IC50 in data set [1] was 1140 nM.
For `Cc1csc(NC(=O)c2cc(-c3cncnc3)cn3ncnc23)n1`, the IC50 in data set [1] was found to be 758 ± 280 nM.
On to `Cc1ccc(NC(=O)c2cc(-c3cc(C)n[nH]3)cn3ccnc23)nc1`, for which the IC50 in data set [1] was 5110 nM.
For the molecule `Cc1ccncc1-c1cc(C(=O)Nc2ccc(F)cn2)c2ncnn2c1`, in data set [1], the remaining activity at 30 µM came out at 52% and the IC50 is greater than 10000 nM.
Consider `Cc1cc(C)cc(-c2cc(C(=O)Nc3nc(C)cs3)c3ncnn3c2)c1`, for which, in data set [1], the remaining activity at 30 µM is 57% and the IC50 was greater than 10000 nM.
Turning to `Cc1csc(NC(=O)c2cc(-c3cnccc3C)cn3ncnc23)n1`, the IC50 in data set [1] worked out at 170 nM.
Take `Cc1nc(C#Cc2cccnc2)cs1` [MTEP, 3-[(2-methyl-1,3-thiazol-4-yl)ethynyl]pyridine]: the “inhibition of cytochrome P450 1A2” value in data set [4] was “potent inhibitor”. The clearance result in data set [5] was “efficiently cleared”.
For the molecule `Cc1csc(NC(=O)c2cc(-c3cccc4c3cnn4C)cn3ncnc23)n1`, the IC50 in data set [1] was determined as 7020 nM.
As for `Cc1csc(NC(=O)c2cc(-c3ccnn3C)cn3ncnc23)n1`, the IC50 in data set [1] is 378 ± 17 nM.
Consider `Cc1csc(NC(=O)c2cc(-c3cnc(F)c(C)c3)cn3ncnc23)n1`, for which the IC50 in data set [1] turned out to be 2810 nM.
For the molecule `Cc1csc(NC(=O)c2cc(-c3ccccc3C)cn3ncnc23)n1`, the IC50 in data set [1] came to 7940 nM.
With `COc1cnc(-c2cc(C(=O)Nc3nc(C)cs3)c3ncnn3c2)cn1`, in data set [1], the remaining activity at 30 µM turned out to be 71% and the IC50 was greater than 10000 nM.
For `Cn1nccc1-c1cc(C(=O)Nc2ccc(F)cn2)c2nncn2c1`, the IC50 in data set [1] was found to be 1450 nM.
Still for that read-out and setting: next, `Cc1ccc(NC(=O)c2cc(-c3cnccc3C)cn3ncnc23)nc1`: 325 nM.
As to `Cc1csc(NC(=O)c2cc(-c3ccc4ncccc4c3)cn3ncnc23)n1`, in data set [1], the remaining activity at 30 µM came out at 74% and the IC50 is greater than 10000 nM.
In the case of `Cc1csc(NC(=O)c2cc(-c3cnccc3C3CC3)cn3ncnc23)n1`, the IC50 in data set [1] worked out at 1010 nM.
Consider `Cc1cccc(NC(=O)c2cc(-c3cnccc3C)cn3ncnc23)n1`, for which, in data set [1], the IC50 was 793 nM.
`Cc1csc(NC(=O)c2cc(-c3cnncc3C)cn3ncnc23)n1`: the IC50 in data set [1] was found to be 2910 nM.
Take `Cc1csc(NC(=O)c2cc(-c3cnn(C)c3)cn3ncnc23)n1`: in data set [1], the remaining activity at 30 µM was 30% and the IC50 was greater than 10000 nM.
`Cc1cncc(-c2cc(C(=O)Nc3nc(C)cs3)c3ncnn3c2)c1`: the IC50 in data set [1] turned out to be 1500 nM.
As to `COc1ccc(NC(=O)c2cc(-c3cnccc3C)cn3ncnc23)nc1`, in data set [1], the IC50 was 1310 nM.
On to `Cc1cc(-c2cc(C(=O)Nc3nc(C)cs3)c3nccn3c2)[nH]n1`, for which the IC50 in data set [1] came out at 1410 nM.
Take `Cc1cc(-c2cc(C(=O)Nc3ccc(F)cn3)c3nccn3c2)[nH]n1`: in data set [1], the IC50 came to 3930 nM.
For the molecule `Cc1cc(-c2cc(C(=O)Nc3ccc(F)cn3)c3ncnn3c2)[nH]n1`, the IC50 in data set [1] was greater than 30000 nM.
Regarding `COc1cccc(NC(=O)c2cc(-c3cnccc3C)cn3ncnc23)n1`, in data set [1], the remaining activity at 30 µM was 31% and the IC50 is greater than 10000 nM.
In the case of `Cc1csc(NC(=O)c2cc(-c3ccccc3)cn3ncnc23)n1`, in data set [1], the IC50 amounted to 385 nM.
`Cc1csc(NC(=O)c2cc(-c3cc(C)nn3C)cn3ncnc23)n1`: the IC50 in data set [1] was determined as 690 nM.
Consider `Cc1ccncc1-c1cc(C(=O)Nc2ccccn2)c2ncnn2c1`, for which the IC50 in data set [1] was 358 nM.
On the same count and under the same terms, next, `Cc1cc(-c2cc(C(=O)Nc3cccc(F)n3)c3ncnn3c2)n(C)n1`: 835 nM; `Cc1csc(NC(=O)c2cc(-c3cccnc3)cn3ncnc23)n1`: 587 nM.
With `Cc1csc(NC(=O)c2cc(-c3cc4ccccc4o3)cn3ncnc23)n1`, in data set [1], the remaining activity at 30 µM worked out at 39% and the IC50 was greater than 10000 nM.
`Cc1csc(NC(=O)c2cc(-c3ccc4occc4c3)cn3ncnc23)n1`: the IC50 in data set [1] was greater than 30000 nM.
For the molecule `Cc1csc(NC(=O)c2cc(-c3cccc(F)c3)cn3ncnc23)n1`, the IC50 in data set [1] turned out to be 788 nM.
On to `CCc1cccc(NC(=O)c2cc(-c3cnccc3C)cn3ncnc23)n1`, for which, in data set [1], the IC50 stood at 1760 nM.

Source of the values: patent US9550778B2, “Substituted 6-aryl-imidazopyridine and 6-aryl-triazolopyridine carboxamide analogs as negative allosteric modulators of mGluR5” (Vanderbilt University, priority 2014, dated 2017).
